Values joined by “and” are separate entries in the source; they are usually repeats but may differ in a detail not shown here. Equal entries are not always repeated. Toxic doses and inconclusive results are not listed. Rule for the calls: active = survival T/C of 150% or more; inactive = T/C below 125% in these data.
Test system: P388 leukemia ip, CD2F1 mice, survival T/C
Test: NCI In Vivo Anticancer Drug Screen. Data for tumor model P388 Leukemia (intraperitoneal) in CD2F1 (CDF1) mice
Settings: endpoint: median survival time, higher = longer survival
Summary of the method: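 Mice carrying the transplanted tumor received test compound or vehicle. Survival was recorded in each group, and the value is the treated-group measurement divided by that of the vehicle-treated control group.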

[1] = dose: 30.0 mg/kg/injection, schedule: Q01DX005 (ip), vehicle: saline with Tween-80
[2] = dose: 60.0 mg/kg/injection, schedule: Q01DX005 (ip), vehicle: saline with Tween-80
[3] = dose: 120.0 mg/kg/injection, schedule: Q01DX005 (ip), vehicle: saline with Tween-80
[4] = dose: 240.0 mg/kg/injection, schedule: Q01DX005 (ip), vehicle: saline with Tween-80
[5] = dose: 50.0 mg/kg/injection, schedule: Q01DX005 (ip), vehicle: Klucel (hydroxypropylcellulose) (HPC)
[6] = dose: 100.0 mg/kg/injection, schedule: Q01DX005 (ip), vehicle: Klucel (hydroxypropylcellulose) (HPC)
[7] = dose: 200.0 mg/kg/injection, schedule: Q01DX005 (ip), vehicle: Klucel (hydroxypropylcellulose) (HPC)
[8] = dose: 50.0 mg/kg/injection, schedule: Q01DX005 (ip), vehicle: saline with Tween-80
[9] = dose: 100.0 mg/kg/injection, schedule: Q01DX005 (ip), vehicle: saline with Tween-80
[10] = dose: 50.0 mg/kg/injection, schedule: Q01DX009 (ip), vehicle: saline with Tween-80
[11] = dose: 100.0 mg/kg/injection, schedule: Q01DX009 (ip), vehicle: saline with Tween-80
[12] = dose: 200.0 mg/kg/injection, schedule: Q01DX009 (ip), vehicle: saline with Tween-80
[13] = dose: 100.0 mg/kg/injection, schedule: Q04DX003 (ip), vehicle: saline with Tween-80
[14] = dose: 15.0 mg/kg/injection, schedule: Q01DX005 (ip), vehicle: saline with Tween-80

Measured: T/C

CCOC(=O)C1=C(C(=O)c2ccccc2)C(c2cccc([N+](=O)[O-])c2)C(C(=O)c2ccccc2)=C(C(=O)OCC)N1
inactive: [1] 104 % of control | [2] 104 % of control | [3] 104 % of control | [4] 104 % of control

CC(N1CCOCC1)C(O)(c1ccccc1)c1ccccn1 (stereo not drawn)
inactive: dose: 50.0 mg/kg/injection, schedule: Q01DX005 (ip), vehicle: saline + alcohol 103 % of control | dose: 100.0 mg/kg/injection, schedule: Q01DX005 (ip), vehicle: saline + alcohol 115 % of control

COC(=O)/C=C/c1ccc[n+]([O-])c1
inactive: dose: 50.0 mg/kg/injection, schedule: Q01DX005 (ip), vehicle: saline 99 % of control | dose: 100.0 mg/kg/injection, schedule: Q01DX005 (ip), vehicle: saline 98 % of control | dose: 200.0 mg/kg/injection, schedule: Q01DX005 (ip), vehicle: saline 99 % of control

Cc1ccc2c(c1)C(=O)C(CN1CCOCC1)CCO2 (stereo not drawn)
inactive: dose: 100.0 mg/kg/injection, schedule: Q04DX003 (ip), vehicle: saline 100 % of control | dose: 200.0 mg/kg/injection, schedule: Q04DX003 (ip), vehicle: saline 102 % of control | dose: 400.0 mg/kg/injection, schedule: Q04DX003 (ip), vehicle: saline 96 % of control

CC(C)C1=C(O)C2=C(C(=O)C1=O)C1(C)CCCC(C)(C)C1C(O)C2OC=O (stereo not drawn)
inactive: dose: 12.5 mg/kg/injection, schedule: Q01DX005 (ip), vehicle: Klucel (hydroxypropylcellulose) (HPC) 93 % of control | dose: 25.0 mg/kg/injection, schedule: Q01DX005 (ip), vehicle: Klucel (hydroxypropylcellulose) (HPC) 109 % of control | [5] 107 % of control | [6] 111 % of control

O=C(N=C(Oc1ccccc1)Oc1ccccc1)N=C(Oc1ccccc1)Oc1ccccc1
inactive: [5] 94 % of control | [6] 88 % of control | [7] 91 % of control

OCCCCc1ccccc1
inactive: dose: 100.0 mg/kg/injection, schedule: Q01DX001 (ip), vehicle: saline with Tween-80 104 % of control | dose: 200.0 mg/kg/injection, schedule: Q01DX001 (ip), vehicle: saline with Tween-80 100 % of control | dose: 400.0 mg/kg/injection, schedule: Q01DX001 (ip), vehicle: saline with Tween-80 100 % of control

COC(OC)C(=O)OC(C)(C)C
inactive: [2] 103 % of control | [3] 100 % of control | [4] 101 % of control

CCN(C(=S)NNC(=S)N/N=C(\C)c1ccccn1)c1ccccc1
inactive: dose: 6.25 mg/kg/injection, schedule: Q01DX005 (ip), vehicle: saline with Tween-80 94 % of control | dose: 12.5 mg/kg/injection, schedule: Q01DX005 (ip), vehicle: saline with Tween-80 107 % of control | dose: 25.0 mg/kg/injection, schedule: Q01DX005 (ip), vehicle: saline with Tween-80 109 % of control | [8] 112 % of control | [9] 120 % of control

CCN(CC)P(CCCCP(N(CC)CC)N(CC)CC)N(CC)CC
inactive: dose: 60.0 mg/kg/injection, schedule: Q01DX005 (ip), vehicle: Klucel (hydroxypropylcellulose) (HPC) 106 % of control | dose: 120.0 mg/kg/injection, schedule: Q01DX005 (ip), vehicle: Klucel (hydroxypropylcellulose) (HPC) 103 % of control | dose: 240.0 mg/kg/injection, schedule: Q01DX005 (ip), vehicle: Klucel (hydroxypropylcellulose) (HPC) 104 % of control

O=C(O)C1C=CC2OC2C1C(=O)O (stereo not drawn)
inactive: dose: 100.0 mg/kg/injection, schedule: Q01DX001 (ip), vehicle: Klucel (hydroxypropylcellulose) (HPC) 87 % of control | dose: 200.0 mg/kg/injection, schedule: Q01DX001 (ip), vehicle: Klucel (hydroxypropylcellulose) (HPC) 92 % of control | dose: 400.0 mg/kg/injection, schedule: Q01DX001 (ip), vehicle: Klucel (hydroxypropylcellulose) (HPC) 93 % of control

COc1cccc(CSC(C(=O)O)c2ccccc2)c1 (stereo not drawn)
inactive: [10] 107 % of control | [11] 101 % of control | [12] 117 % of control

CCOC(=O)c1c(C)csc1NC(C)=O
inactive: [11] 120 % of control | [12] 115 % of control | dose: 400.0 mg/kg/injection, schedule: Q01DX009 (ip), vehicle: saline with Tween-80 115 % of control

Cc1ccc2c(c1O)NC(O)c1cccn1C2=O (stereo not drawn)
inactive: dose: 0.1 mg/kg/injection, schedule: Q01DX005 (ip), vehicle: water 99 % of control | dose: 0.2 mg/kg/injection, schedule: Q01DX005 (ip), vehicle: water 111 % of control | dose: 0.4 mg/kg/injection, schedule: Q01DX005 (ip), vehicle: water 100 % of control | dose: 0.8 mg/kg/injection, schedule: Q01DX005 (ip), vehicle: water 98 % of control | dose: 1.6 mg/kg/injection, schedule: Q01DX005 (ip), vehicle: water 96 % of control | dose: 5.0 mg/kg/injection, schedule: Q01DX005 (ip), vehicle: distilled water + Tween-80 92 % of control | dose: 10.0 mg/kg/injection, schedule: Q01DX005 (ip), vehicle: distilled water + Tween-80 98 % of control | dose: 20.0 mg/kg/injection, schedule: Q01DX005 (ip), vehicle: distilled water + Tween-80 91 % of control | dose: 80.0 mg/kg/injection, schedule: Q01DX005 (ip), vehicle: distilled water + Tween-80 86 % of control

O=C1c2ccccc2C(=O)c2c1cc1c(O)c(CN3CCCC3)ccc1c2O
inactive: [8] 92 % of control | [9] 89 % of control

CCc1ccc2c(c1)C(O)(c1ccccc1)c1ccccc1C2(O)c1ccccc1 (stereo not drawn)
inactive: [10] 95 % of control | [11] 94 % of control | [12] 93 % of control

C[C@]12CC[C@H]3C(=CCc4cc(O)ccc43)[C@@H]1C/C(=N\O)C2=O
inactive: [11] 115 % of control | [13] 100 % of control | [12] 120 % of control | dose: 200.0 mg/kg/injection, schedule: Q04DX003 (ip), vehicle: saline with Tween-80 104 % of control | dose: 400.0 mg/kg/injection, schedule: Q04DX003 (ip), vehicle: saline with Tween-80 95 % of control

CCCCCCCCCCCCCCC[N+]1(CC)CCCC1
inactive: dose: 0.78 mg/kg/injection, schedule: Q01DX009 (ip), vehicle: saline 108 % of control | dose: 1.56 mg/kg/injection, schedule: Q01DX009 (ip), vehicle: saline 114 % of control | dose: 3.12 mg/kg/injection, schedule: Q01DX009 (ip), vehicle: saline 114 % of control

CN=Cc1ccc(OC)cc1
inactive: dose: 25.0 mg/kg/injection, schedule: Q01DX009 (ip), vehicle: saline with Tween-80 95 % of control | [10] 95 % of control | [11] 95 % of control

CC1CC(C)(C)N=C(C(C)C)O1 (stereo not drawn)
inactive: dose: 25.0 mg/kg/injection, schedule: Q04DX003 (ip), vehicle: saline with Tween-80 109 % of control | dose: 50.0 mg/kg/injection, schedule: Q04DX003 (ip), vehicle: saline with Tween-80 100 % of control | [13] 100 % of control

Cc1cccc(C)c1Nc1nnc(-c2ccccc2)s1
inactive: [14] 104 % of control | [1] 103 % of control | [2] 94 % of control

CC1(C)OC2C(CO)OC(n3c(Br)nc4c(N)ncnc43)C2O1 (stereo not drawn)
inactive: [8] 100 % of control | [9] 103 % of control | dose: 200.0 mg/kg/injection, schedule: Q01DX005 (ip), vehicle: saline with Tween-80 100 % of control

C=CCOc1cc2c(cc1C/C=C/c1cc(OC)c(OC)c(OC)c1)OCO2
inactive: [14] 101 % of control | [1] 104 % of control | [2] 104 % of control and 89 % of control

N#CCCN(C(=O)Nc1ccccc1)c1ccccc1
inactive: dose: 50.0 mg/kg/injection, schedule: Q01DX009 (ip), vehicle: Klucel (hydroxypropylcellulose) (HPC) 103 % of control | dose: 100.0 mg/kg/injection, schedule: Q01DX009 (ip), vehicle: Klucel (hydroxypropylcellulose) (HPC) 107 % of control | dose: 200.0 mg/kg/injection, schedule: Q01DX009 (ip), vehicle: Klucel (hydroxypropylcellulose) (HPC) 107 % of control

COc1cc(C2c3cc(OC(C)=O)c(OC)cc3CC3C(=O)OCC32)ccc1OC(C)=O (stereo not drawn)
inactive: [5] 95 % of control | [6] 93 % of control | [7] 90 % of control

C#CC(C)(C)NC(=O)NC12CC3CC(CC(C3)C1)C2
inactive: dose: 12.5 mg/kg/injection, schedule: Q01DX001 (ip), vehicle: saline with Tween-80 94 % of control | dose: 25.0 mg/kg/injection, schedule: Q01DX001 (ip), vehicle: saline with Tween-80 86 % of control | dose: 50.0 mg/kg/injection, schedule: Q01DX001 (ip), vehicle: saline with Tween-80 89 % of control

— PubChem BioAssay AID330 (DTP/NCI, 2004)
